Experimental data: ChEMBL document CHEMBL1201862, “PubChem BioAssay data set” (2004)
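Compound exposure: 48 hours, 5 concentrations, 96-well plates. GI50 is the concentration that inhibits growth by half.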 Calls of active or inactive are those of the source. No stated cut-off is given here; in the data, active = GI50 up to about 1.1 µM and inactive = higher.

How the values were obtained:
Assay in all cases: DTP human tumour cell line panel, 48 h
UACC-257 = test system: UACC-257
SK-MEL-5 = test system: SK-MEL-5
HL-60 = test system: HL-60
MDA-MB-231 = test system: MDA-MB-231
COLO 205 = test system: COLO 205
MOLT-4 = test system: MOLT-4
KM12 = test system: KM12
MDA-N = test system: MDA-N
LOX IMVI = test system: LOX IMVI
M14 = test system: M14
UACC-62 = test system: UACC-62
HOP-92 = test system: HOP-92
SNB-75 = test system: SNB-75
NCI-H226 = test system: NCI-H226
SK-OV-3 = test system: SK-OV-3
HOP-62 = test system: HOP-62
SF-268 = test system: SF-268
RPMI-8226 = test system: RPMI-8226
K562 = test system: K562
NCI-H460 = test system: NCI-H460

Structure (SMILES) | GI50 (UACC-257) | GI50 (SK-MEL-5) | GI50 (HL-60) | GI50 (MDA-MB-231) | GI50 (COLO 205) | GI50 (MOLT-4) | GI50 (KM12) | GI50 (MDA-N) | GI50 (LOX IMVI) | GI50 (M14) | GI50 (UACC-62) | GI50 (HOP-92) | GI50 (SNB-75) | GI50 (NCI-H226) | GI50 (SK-OV-3) | GI50 (HOP-62) | GI50 (SF-268) | GI50 (RPMI-8226) | GI50 (K562) | GI50 (NCI-H460)
O=[N+]([O-])c1ccccc1OCCOc1ccccc1[N+](=O)[O-] | > 100 µM (inactive) | > 100 µM (inactive) | > 100 µM (inactive) | 96.2 µM (inactive) | > 100 µM (inactive) | > 100 µM (inactive) | > 100 µM (inactive) | > 100 µM (inactive) | > 100 µM (inactive) | > 100 µM (inactive) | > 100 µM (inactive) | 71.8 µM (inactive) | > 100 µM (inactive) | > 100 µM (inactive) | > 100 µM (inactive) | > 100 µM (inactive) | > 100 µM (inactive) | > 100 µM (inactive) | > 100 µM (inactive) | > 100 µM (inactive)
O=C1C=C(Nc2nc(O)cc(C(=O)O)n2)c2ccccc2C1=O | > 100 µM (inactive) | > 100 µM (inactive) | > 100 µM (inactive) | > 100 µM (inactive) | > 100 µM (inactive) | > 100 µM (inactive) | > 100 µM (inactive) | > 100 µM (inactive) | > 100 µM (inactive) | > 100 µM (inactive) | > 100 µM (inactive) | > 100 µM (inactive) | > 100 µM (inactive) | > 100 µM (inactive) | > 100 µM (inactive) | > 100 µM (inactive) | > 100 µM (inactive) | > 100 µM (inactive) | > 100 µM (inactive) | > 100 µM (inactive)
O=C(/C=C/c1ccccc1)c1cc(Br)ccc1O | 14 µM (inactive) | 15.3 µM (inactive) | 4.06 µM (inactive) | 18 µM (inactive) | 17.3 µM (inactive) | 15.2 µM (inactive) | 12 µM (inactive) | 15 µM (inactive) | 12.2 µM (inactive) | 24 µM (inactive) | 13.9 µM (inactive) | 3.15 µM (inactive) | 15.4 µM (inactive) | 12.9 µM (inactive) | 20 µM (inactive) | 20.1 µM (inactive) | 16.9 µM (inactive) | 6.84 µM (inactive) | 4.28 µM (inactive) | 17.9 µM (inactive)
CCOC(=O)CCc1cccc2c1oc1c(CCNC(=O)OCC3c4ccccc4-c4ccccc43)cccc12 | 41.9 µM (inactive) | 29.2 µM (inactive) | > 100 µM (inactive) | 16.2 µM (inactive) | 34.5 µM (inactive) | > 100 µM (inactive) | > 100 µM (inactive) | > 100 µM (inactive) | 75.9 µM (inactive) | 38.5 µM (inactive) | 16.4 µM (inactive) | 23.1 µM (inactive) | 13.1 µM (inactive) | 86.7 µM (inactive) | 49 µM (inactive) | 16.2 µM (inactive) | 25.2 µM (inactive) | > 100 µM (inactive) | > 100 µM (inactive) | > 100 µM (inactive)
O=[N+]([O-])c1cc2ccc(N(CCO)CCO)nc2nc1N(CCO)CCO | > 100 µM (inactive) | > 100 µM (inactive) | > 100 µM (inactive) | > 100 µM (inactive) | > 100 µM (inactive) | > 100 µM (inactive) | > 100 µM (inactive) | > 100 µM (inactive) | > 100 µM (inactive) | > 100 µM (inactive) | > 100 µM (inactive) | > 100 µM (inactive) | > 100 µM (inactive) | > 100 µM (inactive) | > 100 µM (inactive) | > 100 µM (inactive) | > 100 µM (inactive) | > 100 µM (inactive) | > 100 µM (inactive) | > 100 µM (inactive)
CCOC(=O)CN1CC(C2=C(O)CN(CC(=O)OCC)C2=O)=CC1=O | > 100 µM (inactive) | > 100 µM (inactive) | > 100 µM (inactive) | > 100 µM (inactive) | > 100 µM (inactive) | > 100 µM (inactive) | > 100 µM (inactive) | > 100 µM (inactive) | > 100 µM (inactive) | > 100 µM (inactive) | > 100 µM (inactive) | > 100 µM (inactive) | > 100 µM (inactive) | > 100 µM (inactive) | > 100 µM (inactive) | > 100 µM (inactive) | > 100 µM (inactive) | > 100 µM (inactive) | > 100 µM (inactive) | > 100 µM (inactive)
CCC1=CC2Cc3nc4cc(Cl)ccc4c(N)c3C(C1)C2 (stereo unspecified) | 2.11 µM (inactive) | 1.57 µM (inactive) | 2.29 µM (inactive) | 5.58 µM (inactive) | 2.07 µM (inactive) | 0.822 µM (active) | 5.78 µM (inactive) | 6.08 µM (inactive) | 4.54 µM (inactive) | 1.54 µM (inactive) | 6.04 µM (inactive) | 1.91 µM (inactive) | 6.35 µM (inactive) | 1.48 µM (inactive) | 12.1 µM (inactive) | 8.2 µM (inactive) | 4.62 µM (inactive) | 2.03 µM (inactive) | 2.58 µM (inactive) | 4.07 µM (inactive)
C=C1C(=O)O[C@@H]2C[C@@]3(C)CCCC(=C)[C@@H]3C[C@H]12.C=C1C(=O)O[C@@H]2C[C@@]3(C)CCC[C@H](C)C3=C[C@H]12 | 1.65 µM (inactive) | 1.6 µM (inactive) | 1.99 µM (inactive) | 2.38 µM (inactive) | 1.55 µM (inactive) | 1.34 µM (inactive) | 2.7 µM (inactive) | 2.04 µM (inactive) | 2.9 µM (inactive) | 1.42 µM (inactive) | 2.39 µM (inactive) | 1.9 µM (inactive) | 1.91 µM (inactive) | 5.3 µM (inactive) | 9.79 µM (inactive) | 2.3 µM (inactive) | 2.55 µM (inactive) | 1.12 µM (inactive) | 2.04 µM (inactive) | 3.75 µM (inactive)
COc1ccc2oc(=N)c(C(N)=O)cc2c1 | > 100 µM (inactive) | 60.4 µM (inactive) | 22.9 µM (inactive) | 66.8 µM (inactive) | 49 µM (inactive) | 65.9 µM (inactive) | 31.5 µM (inactive) | 57.1 µM (inactive) | 37.4 µM (inactive) | 87.3 µM (inactive) | 29.8 µM (inactive) | > 100 µM (inactive) | 30.1 µM (inactive) | 46.1 µM (inactive) | > 100 µM (inactive) | 55.2 µM (inactive) | 44.3 µM (inactive) | > 100 µM (inactive) | > 100 µM (inactive) | 39.2 µM (inactive)
COC(=O)C1=C(C)NC(CF)=C(C(=O)OC)C1c1cccc2c(=O)c3ccccc3oc12 (stereo unspecified) | 16.5 µM (inactive) | 5.06 µM (inactive) | 4.65 µM (inactive) | 4.74 µM (inactive) | 4.39 µM (inactive) | 5.89 µM (inactive) | 5.51 µM (inactive) | 1.92 µM (inactive) | 7.4 µM (inactive) | – | 10.6 µM (inactive) | 3.88 µM (inactive) | 8.41 µM (inactive) | > 100 µM (inactive) | 26.5 µM (inactive) | 11.7 µM (inactive) | 18.3 µM (inactive) | 69.3 µM (inactive) | 4.06 µM (inactive) | 4.48 µM (inactive)
O=C1/C(=C/c2ccc(Cl)cc2)N=C(c2ccccc2)N1c1nc2ccccc2s1 | 35.6 µM (inactive) | 31.6 µM (inactive) | 4.03 µM (inactive) | 67.8 µM (inactive) | – | 0.548 µM (active) | 61.9 µM (inactive) | 39 µM (inactive) | 43.6 µM (inactive) | 69.8 µM (inactive) | – | 66.4 µM (inactive) | 77.3 µM (inactive) | 49.7 µM (inactive) | > 100 µM (inactive) | > 100 µM (inactive) | 38.4 µM (inactive) | 39.7 µM (inactive) | 26.4 µM (inactive) | 57.4 µM (inactive)
CC(=O)c1c2c(cc3c1CC1(Cc4ccccc4C1=O)C3)CCC2 (stereo unspecified) | 17.9 µM (inactive) | 10.3 µM (inactive) | 5.2 µM (inactive) | 22.3 µM (inactive) | 14.3 µM (inactive) | 10.6 µM (inactive) | 16.2 µM (inactive) | 28.6 µM (inactive) | 19.7 µM (inactive) | 27.3 µM (inactive) | – | 12.2 µM (inactive) | 32 µM (inactive) | 22.9 µM (inactive) | 48.9 µM (inactive) | 30.4 µM (inactive) | 37.9 µM (inactive) | 5.66 µM (inactive) | 16.3 µM (inactive) | 28.6 µM (inactive)
Cc1ccc(-c2nc(C)c(C(=O)Nc3ccc(Cl)cc3)s2)cc1 | > 100 µM (inactive) | 20.1 µM (inactive) | > 100 µM (inactive) | 30.3 µM (inactive) | > 100 µM (inactive) | > 100 µM (inactive) | > 100 µM (inactive) | > 100 µM (inactive) | 31.1 µM (inactive) | 27.7 µM (inactive) | 19.6 µM (inactive) | 23.5 µM (inactive) | 15.1 µM (inactive) | 20.6 µM (inactive) | 19 µM (inactive) | 13.4 µM (inactive) | 26.5 µM (inactive) | > 100 µM (inactive) | > 100 µM (inactive) | 29.5 µM (inactive)
Nc1nc(OCC2CCCCC2)c2nc[nH]c2n1 | 17.3 µM (inactive) | 15.2 µM (inactive) | 19.1 µM (inactive) | 25 µM (inactive) | 13 µM (inactive) | 8.47 µM (inactive) | 15.7 µM (inactive) | 13.1 µM (inactive) | 8.75 µM (inactive) | 8.73 µM (inactive) | 12.6 µM (inactive) | 10.3 µM (inactive) | 16.1 µM (inactive) | 9.59 µM (inactive) | 14.9 µM (inactive) | 13.4 µM (inactive) | 11.2 µM (inactive) | 11.1 µM (inactive) | 29.1 µM (inactive) | 8.38 µM (inactive)
